This passage reports TGI results from PubChem BioAssay (NCI).

Some test systems named below: HCT-116 colon; IGROV1 ovarian; LOX IMVI melanoma; MALME-3M melanoma; MDA-N; NCI-H460 lung; OVCAR-5 ovarian; RPMI-8226 leukemia; SNB-75 CNS; HOP-62 NSCLC.
Common to all, as to experiment: NCI anticancer screen, dose series, 48 h

The structures appear in SMILES notation.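 The compound was tested at five concentrations on cells cultured in 96-well plates, with a 48-hour exposure period. TGI: concentration producing complete growth inhibition.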 Bounds are passed on as bounds.

Take `O=C(NN=C1CCCCC1)Nc1ccccc1Cl`: the TGI is greater than 100 µM in the assay with HCT-116 colon; greater than 100 µM in the assay on IGROV1 ovarian; greater than 100 µM with LOX IMVI melanoma; greater than 100 µM in the assay on MALME-3M melanoma; 39 µM in the assay with MDA-N; greater than 100 µM with NCI-H460 lung. Moreover, the TGI in the assay with OVCAR-5 ovarian was greater than 100 µM; in the assay with RPMI-8226 leukemia, greater than 100 µM; in the assay on SNB-75 CNS, 29.6 µM.
On to `O=C1C[C@H](c2ccccc2)C2(C(=O)c3ccccc3C2=O)[C@@H](c2ccccc2)C1`, for which the TGI in the assay with HOP-62 NSCLC is greater than 100 µM; in the assay on IGROV1 ovarian, greater than 100 µM; in the assay on MALME-3M melanoma it was greater than 100 µM; with MDA-N, 81 µM; with NCI-H460 lung, greater than 100 µM; in the assay on OVCAR-5 ovarian, greater than 100 µM. Also, the TGI with RPMI-8226 leukemia and with SNB-75 CNS was greater than 100 µM throughout.
As to `C1OCN2c3nonc3N3COCN4c5nonc5N1C2C43` (stereo unspecified), the TGI in the assay with HCT-116 colon, with IGROV1 ovarian, in the assay with MALME-3M melanoma, in the assay with MDA-N, in the assay on NCI-H460 lung and in the assay with OVCAR-5 ovarian was greater than 100 µM in each case. Also, the TGI with RPMI-8226 leukemia and in the assay on SNB-75 CNS was greater than 100 µM each time.
As to `c1ccc([C@H]2CN3CCSC3=N2)cc1`, the TGI in the assay on HCT-116 colon, in the assay on HOP-62 NSCLC, in the assay with IGROV1 ovarian, in the assay with LOX IMVI melanoma, with MALME-3M melanoma and in the assay on MDA-N was greater than 100 µM in each case. Further, the TGI in the assay on NCI-H460 lung, with OVCAR-5 ovarian and in the assay with SNB-75 CNS was greater than 100 µM in each case.
As to `O=C1Nc2ccccc2NC1C1OC(c2ccccc2)=CC1=O` (stereo unspecified), the TGI in the assay with HCT-116 colon, in the assay on IGROV1 ovarian, in the assay on LOX IMVI melanoma, in the assay with MALME-3M melanoma, in the assay with MDA-N and in the assay on NCI-H460 lung was greater than 100 µM in each case. The TGI with OVCAR-5 ovarian, with RPMI-8226 leukemia and with SNB-75 CNS was greater than 100 µM in each case.
Take `C=C1c2nc3ccccc3n2C=C(c2ccc(Cl)cc2)N1c1ccccc1`: the TGI with HCT-116 colon was 33.7 µM; with IGROV1 ovarian, 22.1 µM; in the assay with LOX IMVI melanoma it was greater than 100 µM; with MALME-3M melanoma it was 27 µM; with MDA-N it was greater than 100 µM; in the assay on NCI-H460 lung, 24.9 µM. Moreover, the TGI in the assay on OVCAR-5 ovarian was greater than 100 µM; with RPMI-8226 leukemia it was greater than 100 µM; in the assay with SNB-75 CNS, 15.9 µM.
For `Cc1ccc([N+](=O)[O-])cc1S(=O)(=O)Nc1ccc(C2=NN(c3ccc([N+](=O)[O-])cc3[N+](=O)[O-])C(c3ccccc3O)C2)cc1` (stereo unspecified), the TGI in the assay on HCT-116 colon, in the assay on HOP-62 NSCLC, with IGROV1 ovarian, in the assay with LOX IMVI melanoma, in the assay with MALME-3M melanoma and in the assay on MDA-N was greater than 100 µM throughout. Besides, the TGI in the assay on OVCAR-5 ovarian, in the assay with RPMI-8226 leukemia and in the assay on SNB-75 CNS was greater than 100 µM throughout.
On to `O=C(c1ccc(Cl)cc1)N(Cc1cccnc1)C(=S)N(Cc1cccnc1)C(=O)c1ccc(Cl)cc1`, for which the TGI in the assay with HCT-116 colon is 80.3 µM; in the assay on HOP-62 NSCLC, greater than 100 µM; in the assay on LOX IMVI melanoma, 47.4 µM; in the assay on MALME-3M melanoma, greater than 100 µM; in the assay on MDA-N, 56.6 µM; in the assay with NCI-H460 lung, greater than 100 µM. For the same compound, the TGI in the assay with OVCAR-5 ovarian, with RPMI-8226 leukemia and in the assay on SNB-75 CNS was greater than 100 µM in each case.
In the case of `CCN(CC)C(=S)SNCCc1ccc(S(N)(=O)=O)cc1`, the TGI in the assay on HCT-116 colon was 26.4 µM; in the assay on HOP-62 NSCLC, 26.3 µM; in the assay on LOX IMVI melanoma it was 33 µM; in the assay on MALME-3M melanoma, 24.3 µM; in the assay on MDA-N, 40.6 µM; in the assay with NCI-H460 lung, greater than 100 µM. For the same compound, the TGI came to 30.4 µM in the assay on OVCAR-5 ovarian, 38.6 µM with RPMI-8226 leukemia and 27 µM with SNB-75 CNS.
Consider `N=C1N=C(N)c2cc3c(cc21)SCCSCCCSCCS3`, for which the TGI in the assay with HCT-116 colon was 23.6 µM; in the assay with HOP-62 NSCLC, 30.7 µM; in the assay with IGROV1 ovarian, 38.4 µM; in the assay with LOX IMVI melanoma, 17.6 µM; with MALME-3M melanoma it was 44.4 µM; in the assay on MDA-N it was 33.8 µM. Further, the results for the TGI in the assay with NCI-H460 lung, in the assay with OVCAR-5 ovarian and with SNB-75 CNS were 29.9 µM, 40.3 µM and 46.9 µM, respectively.
For `Brc1cccc(C2(CCCC3(c4cccc(Br)n4)OCCO3)OCCO2)n1`, the TGI with HCT-116 colon, with HOP-62 NSCLC, with IGROV1 ovarian, in the assay with LOX IMVI melanoma, in the assay with MDA-N and in the assay on NCI-H460 lung was greater than 100 µM each time. Besides, the TGI is greater than 100 µM in the assay on OVCAR-5 ovarian, greater than 100 µM with RPMI-8226 leukemia and 84 µM with SNB-75 CNS.
`CC(C)(C)OC(=O)NC(CCCCNC(=O)OCc1ccccc1)C(=O)NC(CCCCNC(=O)OCc1ccccc1)C(=O)ON1C(=O)CCC1=O` (stereo unspecified): the TGI in the assay on HCT-116 colon, in the assay with HOP-62 NSCLC, in the assay on IGROV1 ovarian, with MALME-3M melanoma, with MDA-N and with OVCAR-5 ovarian was greater than 100 µM throughout. In addition, the TGI in the assay with RPMI-8226 leukemia and in the assay on SNB-75 CNS was greater than 100 µM in each case.
In the case of `CC(=O)OCC1OC(OCC2OC(N3C(=S)N[C@H]([C@@H](O)[C@H](O)[C@H](O)CO)[C@H]3O)C(OC(C)=O)C(OC(C)=O)C2OC(C)=O)C(OC(C)=O)C(OC(C)=O)C1OC(C)=O` (stereo partly specified), the TGI in the assay with HCT-116 colon, with HOP-62 NSCLC, in the assay with MALME-3M melanoma, in the assay with MDA-N, with NCI-H460 lung and in the assay with OVCAR-5 ovarian was greater than 100 µM in each case. For the same compound, in the assay with RPMI-8226 leukemia, the TGI is greater than 100 µM.
Regarding `CC[C@@]1(O)C(=O)OCc2c1cc1n(c2=O)Cc2c-1nc1ccccc1c2/C=N\NC(=O)C(N)CS` (stereo partly specified), the TGI is greater than 100 µM in the assay on HCT-116 colon; greater than 85.3 µM with IGROV1 ovarian; 13.4 µM in the assay with LOX IMVI melanoma; greater than 100 µM in the assay with MALME-3M melanoma; greater than 100 µM with MDA-N; greater than 43.6 µM in the assay with NCI-H460 lung. Moreover, the TGI is greater than 100 µM in the assay on OVCAR-5 ovarian, greater than 100 µM with RPMI-8226 leukemia and 14 µM with SNB-75 CNS.
